The text below walks through data of ChEMBL document CHEMBL5244252, “PROTAC: A promising technology for cancer treatment” (Eur J Med Chem, 2020).

Assay [1] concerns the target Cellular tumor antigen p53 (Homo sapiens) (UniProt P04637). Kind of assay: Induction of p53 stabilization in human HCT-116 cells assessed as fold increase by Western blot analysis. The class given is cell-based. (Immunoblotting shows a protein as a band on a membrane.)
Assay [2] has as its target T1, Steroid hormone receptor ERR1 (Homo sapiens) (UniProt P11474).
T1 sequence (whole entry): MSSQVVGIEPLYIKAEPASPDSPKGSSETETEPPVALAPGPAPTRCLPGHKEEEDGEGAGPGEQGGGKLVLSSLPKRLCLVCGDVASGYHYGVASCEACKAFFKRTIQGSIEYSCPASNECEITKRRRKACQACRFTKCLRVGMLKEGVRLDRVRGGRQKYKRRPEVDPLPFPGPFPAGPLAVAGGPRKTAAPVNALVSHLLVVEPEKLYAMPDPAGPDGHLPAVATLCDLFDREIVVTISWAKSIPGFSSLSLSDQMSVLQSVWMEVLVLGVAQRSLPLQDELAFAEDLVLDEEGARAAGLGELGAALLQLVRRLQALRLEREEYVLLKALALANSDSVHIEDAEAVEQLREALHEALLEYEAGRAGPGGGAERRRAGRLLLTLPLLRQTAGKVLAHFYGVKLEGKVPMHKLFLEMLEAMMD
Briefly: In vivo protac activity at ERRalpha in human MDA-MB-231 cells xenografted mouse assessed as reduction in ERRalpha level in tumor at 100 mg/kg, ip administered 3 times a day. In kind it is functional, organism-based. Details: scale not given: the % may be the effect or the level left.

Assay [3] addresses von Hippel-Lindau disease tumor suppressor/Steroid hormone receptor ERR1 (Homo sapiens) (UniProt P11474+P40337). Kind of assay: Protac activity at VHL/ERRalpha in human MCF7 cells assessed as maximum degradation. In kind it is cell-based.
Assay [4] in a line: Antiproliferative activity against human HBL1 cells expressing BTK C481S mutant assessed as growth inhibition. The class given is functional.

Each structure is given as a SMILES string.

Chain of von Hippel-Lindau disease tumor suppressor/Steroid hormone receptor ERR1 (Homo sapiens) (P40337 whole entry, looked up, one chain of several): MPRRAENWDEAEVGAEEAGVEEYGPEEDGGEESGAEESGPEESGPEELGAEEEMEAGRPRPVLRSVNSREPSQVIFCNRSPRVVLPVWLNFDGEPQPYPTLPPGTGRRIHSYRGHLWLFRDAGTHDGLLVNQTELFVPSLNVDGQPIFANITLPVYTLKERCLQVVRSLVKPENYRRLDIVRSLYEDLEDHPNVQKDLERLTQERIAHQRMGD
Chain of Cellular tumor antigen p53 (Homo sapiens) (P04637 whole entry, looked up): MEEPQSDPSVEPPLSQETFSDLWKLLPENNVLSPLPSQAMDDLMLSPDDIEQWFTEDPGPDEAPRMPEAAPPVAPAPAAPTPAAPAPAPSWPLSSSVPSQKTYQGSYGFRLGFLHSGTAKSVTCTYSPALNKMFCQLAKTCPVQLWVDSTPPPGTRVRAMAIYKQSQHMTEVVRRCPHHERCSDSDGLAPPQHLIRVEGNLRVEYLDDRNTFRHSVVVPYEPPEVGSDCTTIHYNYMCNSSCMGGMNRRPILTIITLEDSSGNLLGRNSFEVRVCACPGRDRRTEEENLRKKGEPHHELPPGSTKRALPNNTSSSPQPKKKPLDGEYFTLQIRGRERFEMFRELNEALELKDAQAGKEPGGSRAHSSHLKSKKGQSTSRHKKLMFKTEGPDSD

`COc1cc(C(=O)NCCOCCOCCOCCNC(=O)C[C@@H]2N=C(c3ccc(Cl)cc3)C3C(C)=C(C)SC3n3c(C)nnc32)ccc1NC(=O)[C@@H]1N[C@@H](CC(C)(C)C)[C@](C#N)(c2ccc(Cl)cc2F)[C@H]1c1cccc(Cl)c1F` (stereo not given in full): the fold change (FC) in assay [1] is 5.9.

As a reminder, the Emax is the maximal effect, on the per cent scale that the assay sets. For `COc1cc(/C=C2/SC(=O)N(CCOCCC(=O)N[C@@H](C(=O)N3C[C@H](O)C[C@H]3C(=O)Nc3ccc(-c4scnc4C)cc3)C(C)(C)C)C2=O)ccc1Oc1ccc(C#N)cc1C(F)(F)F`, in assay [2], the Activity is 39%. Also, the maximal effect (Emax) in assay [3] stood at 86%.

A word on the GI50: it is the concentration that inhibits growth by half. In the case of `C=CC(=O)N1CCC[C@@H](n2nc(-c3ccc(Oc4ccccc4)cc3)c3c(N)ncnc32)C1` [IBRUTINIB], in assay [4], the GI50 was 700 nM.

Take `Nc1ncnc2c1c(-c1ccc(Oc3ccccc3)cc1)nn2[C@@H]1CCCN(C(=O)c2cn(CCOCCOCCOCCNc3cccc4c3C(=O)N(C3CCC(=O)NC3=O)C4=O)nn2)C1` (stereo not given in full): in assay [4], the GI50 came out at 28 nM.
